A short description of data set [1]: Electrolyte stability: repeated cycling overnight, cyclic voltammograms before and after. Particulars: 300 mM DMTU, 0.45 M HCl, no significant peak changes in the cyclic voltammograms. The data set is classed as physicochemical. The source says: Cyclic voltammograms were obtained before and after the overnight test—initial E (V)=0, high E (V)=1, low E (V)=−0.8, initial P/N=P, scan rate (V/s)=0.05, segment=3, sample interval (V)=0.001, quiet time (s)=2, […].

Data set [2] can be described thus: Cyclic voltammetry comparison of N-methyl thiourea and N,N′-dimethyl thiourea catholytes. It counts as physicochemical. Particulars: 200 mM in 1 M NaCl, scan rate 0.05 V/s. Here is the method: Aqueous catholytes comprising 200 mM MTU and 200 mM DMTU were compared. Each catholyte also included 1 M NaCl. Cyclic voltammetry was performed under the following conditions: initial E (V)=0, high E (V)=1, low E (V)=−0.75, initial P/N=P, scan rate (V/s)=0.05, segment=7, sample interval (V)=0.001, quiet time (s)=2, sensitivity (A/V)=0.001.

The next data set can be described thus: physchem. Particulars: aqueous buffer.
Data set [3] is described as follows: Cyclic voltammetry, redox couple potential. The data set is classed as physicochemical. Particulars: neutral aqueous solution. Here is the method: Cyclic voltammetry was performed at 0.05 V/s with a glassy carbon working electrode.

SMILES strings stand for the structures. ≈ marks a conversion by molar mass, not a printed value.

Two compounds from patent US9793566B2, “Aqueous electrolytes for redox flow battery systems” (Battelle Memorial Institute, priority 2015, dated 2017) can be followed below.

On to `CNC(=S)NC` [DMTU, N,N′-dimethyl thiourea], for which the “stability in acid solutions” value in data set [1] was “good stability”. For the same compound, the “kinetics, reversibility and overpotential compared with MTU” value in data set [2] was “better kinetics, with better reversibility and a lower overpotential”. In the data set “physchem”, the solubility was about 4000 mM (≈ 417 mg/mL).
For `CC1(C)CC(O)CC(C)(C)N1[O]` [HTMPO, 4-hydroxy-2,2,6,6-tetramethylpiperidine 1-oxyl], in data set [3], the “one electron redox couple” value worked out at 0.75 V vs. SHE.
